The results in this text go back to PubChem BioAssay AID1259407 (Chemical Carcinogenesis Research Information System (CCRIS), 2018).

Calls of active or inactive are those of the source. No rule for the calls is given here.

This data set relates to CCRIS mutagenicity, Ames/micronucleus/aberration tests. The data set is described as follows: CCRIS mutagenicity studies.
Where [1] appears, read: Test System: AMES SALMONELLA TYPHIMURIUM, Strain/Indicator: TA98, Metabolic Activation: NONE, Method: STANDARD PLATE.
The mark [2] stands for this setting: Test System: AMES SALMONELLA TYPHIMURIUM, Strain/Indicator: TA98, Metabolic Activation: RAT, LIVER, S-9, AROCLOR 1254, Method: STANDARD PLATE.
The mark [3] stands for this setting: Test System: AMES SALMONELLA TYPHIMURIUM, Strain/Indicator: TA97, Metabolic Activation: NONE, Method: STANDARD PLATE.
Setting [4] is: Test System: AMES SALMONELLA TYPHIMURIUM, Strain/Indicator: TA100, Metabolic Activation: RAT, LIVER, S-9, AROCLOR 1254, Method: STANDARD PLATE.
[5] abbreviates: Test System: AMES SALMONELLA TYPHIMURIUM, Strain/Indicator: TA102, Metabolic Activation: NONE, Method: STANDARD PLATE.
Where [6] appears, read: Test System: AMES SALMONELLA TYPHIMURIUM, Strain/Indicator: TA1535, Metabolic Activation: NONE, Method: PREINCUBATION

With `C=C(Br)CBr`, the mutagenic call was “active; positive” (Test System: AMES SALMONELLA TYPHIMURIUM, Strain/Indicator: TA100, Metabolic Activation: RAT, LIVER, MICROSOMES, PHENOBARBITAL, NADPH COFACTORS, Method: STANDARD PLATE) and “active; positive” (Test System: AMES SALMONELLA TYPHIMURIUM, Strain/Indicator: TA100, Metabolic Activation: RAT, LIVER, MICROSOMES, PHENOBARBITAL, Method: STANDARD PLATE).

`CNP(=O)(N(C)C)N(C)C`: the mutagenic call reads like this: (Test System: AMES SALMONELLA TYPHIMURIUM, Strain/Indicator: TA100, Metabolic Activation: NONE, Method: SUSPENSION) “inactive; negative”; (Test System: AMES SALMONELLA TYPHIMURIUM, Strain/Indicator: TA100, Metabolic Activation: RAT, LIVER, S-9, AROCLOR 1254, Method: SUSPENSION) “active; positive”.

In the case of `CC(C)(C)NC[C@@H](O)COc1ccccc1C1CCCC1`, the mutagenic call is, setting by setting: under setting [1], “active; positive”; under setting [2], “active; positive”.

In the case of `NNc1nnc(NN)c2ccccc12`, the mutagenic call by setting is: under setting [3], “active; positive”; under setting [2], “active; positive”; under setting [4], “inactive; negative”; under setting [5], “active; positive”; (Test System: AMES SALMONELLA TYPHIMURIUM, Strain/Indicator: TA104, Metabolic Activation: NONE, Method: STANDARD PLATE) “inactive; negative”; (Test System: AMES SALMONELLA TYPHIMURIUM, Strain/Indicator: TA1535, Metabolic Activation: RAT, LIVER, S-9, AROCLOR 1254, Method: STANDARD PLATE) “inactive; negative”. The mutagenic call is “active; positive” (Test System: AMES SALMONELLA TYPHIMURIUM, Strain/Indicator: TA1537, Metabolic Activation: NONE, Method: STANDARD PLATE); “active; positive” (Test System: AMES SALMONELLA TYPHIMURIUM, Strain/Indicator: TA1537, Metabolic Activation: RAT, LIVER, S-9, AROCLOR 1254, Method: STANDARD PLATE); “active; positive” (Test System: AMES SALMONELLA TYPHIMURIUM, Strain/Indicator: TA1538, Metabolic Activation: NONE, Method: STANDARD PLATE).

Regarding `NCCCNCCCCN(CCCN)/[N+]([O-])=N/O`, the mutagenic call runs as follows: under setting [6], “active; positive”; (Test System: AMES SALMONELLA TYPHIMURIUM, Strain/Indicator: TA1535, Metabolic Activation: NONE, Method: STANDARD PLATE) “active; positive”; (Test System: CHINESE HAMSTER OVARY, Strain/Indicator: CHO-K1-BH4 (HGPRT)/6-THIOGUANINE, Metabolic Activation: NONE) “active; positive”; (Test System: E. COLI, Strain/Indicator: WP2 UVRA (PKM101), Metabolic Activation: NONE, Method: STANDARD PLATE) “active; positive”; (Test System: E. COLI, Strain/Indicator: WP2 UVRA/OXYR (PKM101), Metabolic Activation: NONE, Method: STANDARD PLATE) “active; positive”; (Test System: E. COLI, Strain/Indicator: WP2 UVRA/UMUDC, Metabolic Activation: NONE, Method: STANDARD PLATE) “active; positive”. The mutagenic call (Test System: E. COLI, Strain/Indicator: WP2 UVRA, Metabolic Activation: NONE, Method: STANDARD PLATE) was “active; positive” and the mutagenic call (Test System: MOUSE LYMPHOMA, Strain/Indicator: L5178Y (TK+/TK-), Metabolic Activation: NONE, Method: SUSPENSION/PLATE) is “active; positive”.

Regarding `CN[C@@H]1[C@@H](O)[C@@H](O[C@@H]2[C@@H](O)[C@H](O[C@H]3O[C@H](CN)[C@@H](O)[C@H](O)[C@H]3O)[C@@H](N)C[C@H]2NC(=O)[C@@H](O)CN)OC[C@]1(C)O`, the mutagenic call was “inactive; negative” (Test System: AMES SALMONELLA TYPHIMURIUM, Strain/Indicator: TA98, Metabolic Activation: NONE, Method: PREINCUBATION); “inactive; negative” (Test System: AMES SALMONELLA TYPHIMURIUM, Strain/Indicator: TA100, Metabolic Activation: NONE, Method: PREINCUBATION); “inactive; negative” under setting [6]; “inactive; negative” (Test System: E. COLI, Strain/Indicator: WP2 UVRA, Metabolic Activation: NONE, Method: PREINCUBATION).

Take `CCOC(=O)c1[nH]c2ccccc2c1N=Cc1ccc(NC(C)=O)cc1`: the mutagenic call is, setting by setting: under setting [3], “active; positive”; (Test System: AMES SALMONELLA TYPHIMURIUM, Strain/Indicator: TA97, Metabolic Activation: RAT, LIVER, S-9, AROCLOR 1254, Method: STANDARD PLATE) “inactive; negative”; under setting [1], “inactive; negative”; under setting [2], “inactive; negative”; (Test System: AMES SALMONELLA TYPHIMURIUM, Strain/Indicator: TA100, Metabolic Activation: NONE, Method: STANDARD PLATE) “inactive; negative”; under setting [4], “inactive; negative”. The mutagenic call runs as follows: under setting [5], “inactive; negative”; (Test System: AMES SALMONELLA TYPHIMURIUM, Strain/Indicator: TA102, Metabolic Activation: RAT, LIVER, S-9, AROCLOR 1254, Method: STANDARD PLATE) “inactive; negative”.

Regarding `N#CCc1cn(N=O)c2ccccc12`, the mutagenic call was “active; positive” (Test System: AMES SALMONELLA TYPHIMURIUM, Strain/Indicator: TA100, Metabolic Activation: NONE) and “active; positive” (Test System: AMES SALMONELLA TYPHIMURIUM, Strain/Indicator: TA100, Metabolic Activation: S-9).

For `NC(Cc1ccccc1)C(=O)O` (stereo not drawn), the mutagenic call (Test System: AMES SALMONELLA TYPHIMURIUM, Strain/Indicator: TA98, Metabolic Activation: RAT LIVER S-9, CHLOROPHENE, Method: STANDARD PLATE (COMPOUND HEATED AT 250 DEGREES CELSIUS FOR 20 MIN)) was “inactive; negative”.
